According to ChEMBL document CHEMBL1201862, “PubChem BioAssay data set” (2004):
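Values below derive from 48-hour exposures of cells grown in 96-well plates, with endpoints linearly interpolated between the two concentrations bracketing the appropriate inhibition level. At the GI50, growth is halved.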 Activity calls are given as the source filed them. Cut-off read from the data, not from the text of the source: active = GI50 up to about 1.1 µM and inactive = higher.

Experiments:
Assay in all cases: NCI-60 cell line screen, 48 h
NCI-H23 = test system: NCI-H23
MOLT-4 = test system: MOLT-4
UACC-62 = test system: UACC-62
U-251 = test system: U-251
DU-145 = test system: DU-145
HT-29 = test system: HT-29
COLO 205 = test system: COLO 205
LOX IMVI = test system: LOX IMVI
IGROV-1 = test system: IGROV-1
HCT-15 = test system: HCT-15
CAKI-1 = test system: CAKI-1
RPMI-8226 = test system: RPMI-8226
HOP-62 = test system: HOP-62
HCT-116 = test system: HCT-116
Malme-3M = test system: Malme-3M
NCI-H226 = test system: NCI-H226
SN12C = test system: SN12C
TK-10 = test system: TK-10
SK-MEL-2 = test system: SK-MEL-2

Structure (SMILES) | GI50 (NCI-H23) | GI50 (MOLT-4) | GI50 (UACC-62) | GI50 (U-251) | GI50 (DU-145) | GI50 (HT-29) | GI50 (COLO 205) | GI50 (LOX IMVI) | GI50 (IGROV-1) | GI50 (HCT-15) | GI50 (CAKI-1) | GI50 (RPMI-8226) | GI50 (HOP-62) | GI50 (HCT-116) | GI50 (Malme-3M) | GI50 (NCI-H226) | GI50 (SN12C) | GI50 (TK-10) | GI50 (SK-MEL-2)
CC(C)c1ccc(C(O)(C(=O)O)c2ccc(C(C)C)cc2)cc1 | 42.1 µM (inactive) | 48.8 µM (inactive) | 44.6 µM (inactive) | 18.2 µM (inactive) | 61.2 µM (inactive) | 48.9 µM (inactive) | > 100 µM (inactive) | 68.5 µM (inactive) | 55.7 µM (inactive) | 46.6 µM | 45.8 µM (inactive) | 24.8 µM (inactive) | 28.3 µM (inactive) | 36.6 µM (inactive) | 78.7 µM (inactive) | 24.5 µM (inactive) | 46 µM (inactive) | 79.3 µM (inactive) | –
CCOc1cc2c(cc1O)/C(=N\OC)C[C@@H]1[C@@H]2CC[C@]2(C)[C@@H](O)CC[C@@H]12 | 0.324 µM (active) | 0.255 µM (active) | < 0.0306 µM (active) | 0.135 µM (active) | 0.326 µM (active) | 3.81 µM (inactive) | 16.3 µM (inactive) | 0.122 µM (active) | 0.923 µM (active) | 0.0653 µM | – | 0.167 µM (active) | < 0.0461 µM (active) | < 0.0296 µM (active) | 0.129 µM (active) | 0.106 µM (active) | 0.372 µM (active) | > 32.9 µM (inactive) | < 0.0358 µM (active)
O=C(C[C@H](NC(=O)OCc1ccccc1)C(=O)NC1Cc2ccccc2OC1=O)OCc1ccccc1 (some centres not stated) | > 100 µM (inactive) | > 100 µM (inactive) | > 10 µM (inactive) | > 100 µM (inactive) | 59.6 µM (inactive) | – | > 100 µM (inactive) | – | > 100 µM (inactive) | 46 µM | 70 µM (inactive) | > 100 µM (inactive) | > 100 µM (inactive) | 29.2 µM (inactive) | > 100 µM (inactive) | > 100 µM (inactive) | 36.4 µM (inactive) | – | > 100 µM (inactive)
CN(C(=O)C1(C(=O)C=[N+]=[N-])CC1)c1ccccc1 | > 100 µM (inactive) | > 100 µM (inactive) | > 100 µM (inactive) | > 100 µM (inactive) | > 100 µM (inactive) | > 100 µM (inactive) | > 100 µM (inactive) | > 100 µM (inactive) | > 100 µM (inactive) | > 100 µM | – | > 100 µM (inactive) | > 100 µM (inactive) | > 100 µM (inactive) | > 100 µM (inactive) | > 100 µM (inactive) | > 100 µM (inactive) | > 100 µM (inactive) | > 100 µM (inactive)
O=C(Cn1c(C(=O)/C=C/c2ccc(Cl)cc2)nc2ccccc21)c1ccc(Cl)cc1 | 19.5 µM (inactive) | 2.26 µM (inactive) | 15.8 µM (inactive) | 11.5 µM (inactive) | 21.7 µM (inactive) | 15 µM (inactive) | 16.5 µM (inactive) | 16 µM (inactive) | 16.7 µM (inactive) | 15.3 µM | – | 6.18 µM (inactive) | 16.4 µM (inactive) | 10.9 µM (inactive) | 20.9 µM (inactive) | 21.4 µM (inactive) | 14.1 µM (inactive) | 30.8 µM (inactive) | 17.6 µM (inactive)
CN1B(c2ccccc2)N(C)C(=O)N(C)C1=O | > 100 µM (inactive) | – | > 100 µM (inactive) | > 100 µM (inactive) | > 100 µM (inactive) | > 100 µM (inactive) | > 100 µM (inactive) | – | > 100 µM (inactive) | > 100 µM | 52.2 µM (inactive) | > 100 µM (inactive) | – | > 100 µM (inactive) | > 100 µM (inactive) | > 100 µM (inactive) | > 100 µM (inactive) | > 100 µM (inactive) | > 100 µM (inactive)
Cc1ccc(OCC2OC(n3cnc4nc(Nc5ccc(Cl)c(Cl)c5)nc(Cl)c43)CC2Oc2ccc(C)cc2)cc1 (configuration not stated) | > 100 µM (inactive) | > 100 µM (inactive) | > 100 µM (inactive) | > 100 µM (inactive) | > 100 µM (inactive) | > 100 µM (inactive) | > 100 µM (inactive) | – | 0.855 µM (active) | > 100 µM | > 100 µM (inactive) | > 100 µM (inactive) | > 100 µM (inactive) | > 100 µM (inactive) | > 100 µM (inactive) | 46.9 µM (inactive) | > 100 µM (inactive) | > 100 µM (inactive) | > 100 µM (inactive)
CC(NC(=O)C(N)Cc1ccc(O)cn1)C(=O)O (configuration not stated) | > 100 µM (inactive) | > 100 µM (inactive) | – | > 100 µM (inactive) | > 100 µM (inactive) | > 100 µM (inactive) | > 100 µM (inactive) | > 100 µM (inactive) | > 100 µM (inactive) | > 100 µM | > 100 µM (inactive) | > 100 µM (inactive) | > 100 µM (inactive) | > 100 µM (inactive) | > 100 µM (inactive) | > 100 µM (inactive) | > 100 µM (inactive) | > 100 µM (inactive) | –
COc1ccc(N2C(=O)C3c4[nH]c5ccc(OC)cc5c4C4CCC(C(C)C)CC4C3C2=O)cc1 (configuration not stated) | > 100 µM (inactive) | 28.8 µM (inactive) | > 31.6 µM (inactive) | 26.4 µM (inactive) | > 100 µM (inactive) | > 100 µM (inactive) | > 100 µM (inactive) | > 100 µM (inactive) | > 38 µM (inactive) | > 100 µM | > 100 µM (inactive) | > 100 µM (inactive) | 12 µM (inactive) | > 55.3 µM (inactive) | – | > 100 µM (inactive) | > 100 µM (inactive) | > 100 µM (inactive) | > 59.4 µM (inactive)
CCOP(=O)(OCC)C(N)c1ccc(Cl)cc1 (configuration not stated) | > 100 µM (inactive) | > 100 µM (inactive) | > 100 µM (inactive) | > 100 µM (inactive) | > 100 µM (inactive) | > 100 µM (inactive) | > 100 µM (inactive) | > 100 µM (inactive) | > 100 µM (inactive) | > 100 µM | > 100 µM (inactive) | > 100 µM (inactive) | – | > 100 µM (inactive) | > 100 µM (inactive) | – | > 100 µM (inactive) | > 100 µM (inactive) | > 100 µM (inactive)
O=C(/C=C/c1cccs1)c1ccc(Cl)cc1 | 88.5 µM (inactive) | 23.3 µM (inactive) | > 100 µM (inactive) | > 100 µM (inactive) | > 100 µM (inactive) | 39.7 µM (inactive) | > 100 µM (inactive) | – | > 100 µM (inactive) | 41 µM | – | 22.2 µM (inactive) | > 100 µM (inactive) | 41.5 µM (inactive) | > 100 µM (inactive) | 67.8 µM (inactive) | 51.5 µM (inactive) | > 100 µM (inactive) | > 100 µM (inactive)
C/C(=C\CNc1ncnc2c1ncn2CCC(=O)OC(C)(C)C)CO | > 100 µM (inactive) | > 100 µM (inactive) | > 100 µM (inactive) | – | > 100 µM (inactive) | > 100 µM (inactive) | > 100 µM (inactive) | > 100 µM (inactive) | > 100 µM (inactive) | – | > 100 µM (inactive) | > 100 µM (inactive) | > 100 µM (inactive) | > 100 µM (inactive) | > 100 µM (inactive) | > 100 µM (inactive) | > 100 µM (inactive) | > 100 µM (inactive) | –
